Tests used:
Assay type in all cases: in vivo
[1] = test system: crabgrass (Digitaria sanguinalis L.), DIGSA; assay: Test Example 2 post-emergence (foliage treatment) herbicidal activity, DIGSA; conditions: 63 g a.i./ha
Method in brief: (§1)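 Each species was evaluated for growth suppression by eye, 0% matching untreated and 100% meaning death, some 20 to 23 days after a single post-emergence foliar treatment applied in 500 L/ha of water carrying 0.1% (v/v) agricultural spreader.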

[2] = test system: rice (Oryza sativa L.: ORYSA); assay: Test Example 3 water application herbicidal activity (paddy), transplanted rice ORYSA; conditions: 63 g a.i./ha, water application 4th day after transplantation of 2 leaf stage rice, visually observed 21st day after application; 0 = untreated control, 100 = complete kill
Method in brief: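 Compound, as diluted wettable powder or emulsifiable concentrate, was pipetted into flood water at a set active-ingredient dose. Weeds were treated at 0.5-leaf stage after sowing or tuber planting; 2-leaf rice 4 days post-transplant. Control scored visually, 0 untreated to 100 complete kill, weeds day 14, rice day 21.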

[3] = test system: velvetleaf (Abutilon theophrasti), ABUTH; assay: Test Example 2 post-emergence (foliage treatment) herbicidal activity, ABUTH; conditions: 63 g a.i./ha
Method in brief: (§2)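 A small sprayer delivered the diluted WP or EC formulation (500 L/ha water, 0.1% v/v spreader) over emerged seedlings in upland soil pots. Damage relative to untreated plants was graded visually from 0 to 100% three weeks or so later (days 20-23).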

[4] = test system: rice (Oryza sativa L.), ORYSA; assay: Test Example 2 post-emergence (foliage treatment) herbicidal activity, ORYSA; conditions: 63 g a.i./ha
Method in brief: as §1

[5] = test system: redroot pigweed (Amaranthus retroflexus L.), AMARE; assay: Test Example 2 post-emergence (foliage treatment) herbicidal activity, AMARE; conditions: 63 g a.i./ha
Method in brief: as §1

[6] = test system: prickly sida (Sida spinosa L.): SEDSP; assay: Test Example 1 pre-emergence herbicidal activity, SIDSP; conditions: visually observed 20th to 23rd day after application
Method in brief: (§3)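 Percent growth control, rated visually 20–23 d after a pre-emergence spray applied 1 d post-sowing; compound formulated as WP or EC in 500 L/ha water at a predetermined a.i. amount.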

[7] = test system: japanese bulrush (Scirpus juncoides: SCPJO); assay: Test Example 3 water application herbicidal activity (paddy), SCPJO; conditions: 63 g a.i./ha, water application under submerged condition at 0.5 leaf stage, visually observed 14th day after application; 0 = untreated control, 100 = complete kill
Method in brief: (§4)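 Submerged application in flooded paddy soil (3–4 cm water); weeds treated at 0.5-leaf stage, transplanted rice 4 d after transplanting. Scored visually as % growth control: weeds at 14 d, rice at 21 d.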

[8] = test system: soybean (Glycine max Merr.): GLXMA; assay: Test Example 1 pre-emergence herbicidal activity, GLXMA; conditions: visually observed 20th to 23rd day after application
Method in brief: as §3

[9] = test system: green foxtail (Setaria viridis L.), SETVI; assay: Test Example 2 post-emergence (foliage treatment) herbicidal activity, SETVI; conditions: 63 g a.i./ha
Method in brief: as §2

[10] = test system: wheat (Triticum aestivum L.): TRZAX; assay: Test Example 1 pre-emergence herbicidal activity, TRZAX; conditions: visually observed 20th to 23rd day after application
Method in brief: as §3

[11] = test system: barnyardgrass (Echinochloa crus-galli L.), ECHCG; assay: Test Example 2 post-emergence (foliage treatment) herbicidal activity, ECHCG; conditions: 63 g a.i./ha
Method in brief: as §1

[12] = test system: velvetleaf (Abutilon theophrasti): ABUTH; assay: Test Example 1 pre-emergence herbicidal activity, ABUTH; conditions: visually observed 20th to 23rd day after application
Method in brief: as §3

[13] = test system: barnyardgrass (Echinochiloa oryzicola: ECHOR); assay: Test Example 3 water application herbicidal activity (paddy), ECHOR; conditions: 63 g a.i./ha, water application under submerged condition at 0.5 leaf stage, visually observed 14th day after application; 0 = untreated control, 100 = complete kill
Method in brief: as §4

[14] = test system: crabgrass (Digitaria sanguinalis L.): DIGSA; assay: Test Example 1 pre-emergence herbicidal activity, DIGSA; conditions: visually observed 20th to 23rd day after application
Method in brief: as §3

[15] = test system: corn (Zea mays L.): ZEAMX; assay: Test Example 1 pre-emergence herbicidal activity, ZEAMX; conditions: visually observed 20th to 23rd day after application
Method in brief: as §3

[16] = test system: rice (Oryza sativa L.): ORYSA; assay: Test Example 1 pre-emergence herbicidal activity, ORYSA; conditions: visually observed 20th to 23rd day after application
Method in brief: as §3

[17] = test system: wheat (Triticum aestivum L.), TRZAX; assay: Test Example 2 post-emergence (foliage treatment) herbicidal activity, TRZAX; conditions: 63 g a.i./ha
Method in brief: as §2

[18] = test system: barnyardgrass (Echinochloa crus-galli L.): ECHCG; assay: Test Example 1 pre-emergence herbicidal activity, ECHCG; conditions: visually observed 20th to 23rd day after application
Method in brief: as §3

[19] = test system: soybean (Glycine max Merr.), GLXMA; assay: Test Example 2 post-emergence (foliage treatment) herbicidal activity, GLXMA; conditions: 63 g a.i./ha
Method in brief: as §2

[20] = test system: redroot pigweed (Amaranthus retroflexus L.): AMARE; assay: Test Example 1 pre-emergence herbicidal activity, AMARE; conditions: visually observed 20th to 23rd day after application
Method in brief: as §3

[21] = test system: corn (Zea mays L.), ZEAMX; assay: Test Example 2 post-emergence (foliage treatment) herbicidal activity, ZEAMX; conditions: 63 g a.i./ha
Method in brief: as §2

[22] = test system: japanese ribbon wapato (Sagittaria pygmaea: SA GPY); assay: Test Example 3 water application herbicidal activity (paddy), SAGPY; conditions: 63 g a.i./ha, water application under submerged condition, tubers planted, visually observed 14th day after application; 0 = untreated control, 100 = complete kill
Method in brief: as §4

[23] = test system: prickly sida (Sida spinosa L.), SIDSP; assay: Test Example 2 post-emergence (foliage treatment) herbicidal activity, SIDSP; conditions: 63 g a.i./ha
Method in brief: as §2

[24] = test system: green foxtail (Setaria viridis L.): SETVI; assay: Test Example 1 pre-emergence herbicidal activity, SETVI; conditions: visually observed 20th to 23rd day after application
Method in brief: as §3

SMILES | growth controlling degree, DIGSP [1] | growth controlling degrees (%) ORYSA [2] | growth controlling degree, ABUTH [3] | growth controlling degree, ORYSA [4] | growth controlling degree, AMARE [5] | growth controlling degrees (%) SCPJO [7] | growth controlling degree, SETVI [9] | growth controlling degree, ECHCO [11] | growth controlling degrees (%) ECHOR [13] | growth controlling degree, TRZAX [17] | growth controlling degree, GLXMA [19] | growth controlling degree, ZEAMX [21] | growth controlling degrees (%) SAGPY [22] | growth controlling degree, SIDSP [23] | further results
C#CCNc1c(OC)c(Cl)cc(F)c1-c1nn(C)c(OC(F)F)c1Cl [Compound 1-53] | 100% | 70% | 100% | 95% | 100% | 100% | 100% | 100% | 100% | 40% | 95% | 100% | 100% | 100% | Pre-emergence Herbicidal Activity SIDSP (growth controlling degree) ([6]; Rate 63 g a.i./ha): 100%; Pre-emergence Herbicidal Activity GLXMA (growth controlling degree) ([8]; Rate 63 g a.i./ha): 30%; Pre-emergence Herbicidal Activity TRZAX (growth controlling degree) ([10]; Rate 63 g a.i./ha): 20%; Pre-emergence Herbicidal Activity ABUTH (growth controlling degree) ([12]; Rate 63 g a.i./ha): 100%; Pre-emergence Herbicidal Activity DIGSP (growth controlling degree) ([14]; Rate 63 g a.i./ha): 100%; Pre-emergence Herbicidal Activity ZEAMX (growth controlling degree) ([15]; Rate 63 g a.i./ha): 20%; Pre-emergence Herbicidal Activity ORYSA (growth controlling degree) ([16]; Rate 63 g a.i./ha): 50%; Pre-emergence Herbicidal Activity ECHCG (growth controlling degree) ([18]; Rate 63 g a.i./ha): 100%; Pre-emergence Herbicidal Activity AMARE (growth controlling degree) ([20]; Rate 63 g a.i./ha): 100%; Pre-emergence Herbicidal Activity SETVI (growth controlling degree) ([24]; Rate 63 g a.i./ha): 100%
COCCOC(=O)N(C(=O)OCCOC)c1c(OC)c(Cl)cc(F)c1-c1nn(C)c(OC(F)F)c1Cl [Compound 1-54] | 70% | 40% | 100% | 98% | 100% | 30% | 80% | 90% | 98% | 30% | 60% | 50% | 30% | 100% | Pre-emergence Herbicidal Activity SIDSP (growth controlling degree) ([6]; Rate 125 g a.i./ha): 95%; Pre-emergence Herbicidal Activity GLXMA (growth controlling degree) ([8]; Rate 125 g a.i./ha): 10%; Pre-emergence Herbicidal Activity TRZAX (growth controlling degree) ([10]; Rate 125 g a.i./ha): 20%; Pre-emergence Herbicidal Activity ABUTH (growth controlling degree) ([12]; Rate 125 g a.i./ha): 80%; Pre-emergence Herbicidal Activity DIGSP (growth controlling degree) ([14]; Rate 125 g a.i./ha): 100%; Pre-emergence Herbicidal Activity ZEAMX (growth controlling degree) ([15]; Rate 125 g a.i./ha): 0%; Pre-emergence Herbicidal Activity ORYSA (growth controlling degree) ([16]; Rate 125 g a.i./ha): 30%; Pre-emergence Herbicidal Activity ECHCG (growth controlling degree) ([18]; Rate 125 g a.i./ha): 20%; Pre-emergence Herbicidal Activity AMARE (growth controlling degree) ([20]; Rate 125 g a.i./ha): 100%; Pre-emergence Herbicidal Activity SETVI (growth controlling degree) ([24]; Rate 125 g a.i./ha): 100%

— patent US20050245399A1, “Pyrazole derivatives as herbicidal compositions containing them” (ISHIHARA SANGYO KAISHA, LTD., priority 2004, published 2005)
